Measurements: US20150159167A1, “Plants Tolerant to HPPD Inhibitor Herbicides” (Bayer CropScience AG, priority 2009, published 2015)
Several values for one entry are separate records, joined by “and”; a condition that tells them apart may be missing. Equal entries are not always repeated.

Key:
[1] = tested on: T1 tobacco plants containing FMP38e (Synechococcus sp. HPPD FMP38); test: Glasshouse trial, herbicidal damage after spray; format: in vivo, Nicotiana tabacum; settings: 7 DAT, 100 gAI/ha spray
Method: T0 Tobacco plants containing either the gene from Arabidopsis coding for HPPD or the gene FMP38e from Synechococcus sp. coding for FMP38 HPPD, mentioned above (Example3), were transferred to the glasshouse (28/20° C.), to develop further and produce seeds. Those seeds were harvested and put on soil (ED73 mixed with sand and osmocote Pro) to germinate in the glasshouse (28/20° C.). Three to four weeks later, plantlets were transferred to single pots containing the soil mentioned above. Two weeks later, plants of a size 4-6 cm diameter were sprayed with either • tembotrione at 100 gAI/ha prepared from a WP20 (wettable powder 20%) formulation supplemented with ammonium sulfate and methyl ester raps oil, or • isoxaflutole at 100 gAI/ha prepared from a WP20 formulation supplemented with ammonium sulfate and methyl ester raps oil, or • “blind formulation” made from a WP20 formulation without active ingredient (AI) supplemented with ammonium sulfate and methyl ester raps oil, and were then transferred to a growth chamber with adequate light conditions (20000 Lux). […]

[2] = tested on: T0 rice plants containing FMP38e; test: Rice glasshouse trial, response to tembotrione; format: in vivo; settings: 100 g AI/ha, 7 DAT
Method: T0 rooted plantlets (either selected on phosphinothricin alone or on phosphinothricin supplemented with tembotrione) were transferred to soil in the glasshouse. Following an acclimation period, sufficiently grown plants were treated with the different HPPD inhibitor herbicides. As an example, T0 plants were sprayed with tembotrione of formulation type WP20 100 g AI/ha supplemented with ammonium sulfate and methyl ester raps oil. Seven days after the spray application, the symptoms due to the application of the herbicide were evaluated and compared the symptoms observed on wild type plants submitted to the same treatment.
The plants were classified in three categories based on the phenotype developed in response to the herbicide seven days after the treatment.

[3] = tested on: tobacco calli containing HPPD SEQ ID No. 7 (Synechococcus sp.); test: Rooting of calli on media with tembotrione; format: cell-based, Nicotiana tabacum; settings: 6 to 12 weeks
Method: The leaf disks were co-cultivated for 2 days with Agrobacterium tumefaciens cells containing either the binary vector FMP38ebv or AtHPPDbv. Then the leaf disks were transferred to a media allowing the regeneration of shoots for 6 weeks on MS (Musharige and Skoog, (1962), Physiol Plant 15(3): 473-497) media supplemented with BAP ([…]; Benzylaminopurine), carbenicillin ([…]), cefotaxine ([…]), kanamycin (75 mg/mL) and tembotrione (10^−6 M)
Regenerated calli were transferred on media to induce the development of roots for 6 to 12 weeks: MS (1/2), supplemented with carbenicillin (250 mg/mL), cefotaxine (250 mg/mL), kanamycin (75 mg/mL), and tembotrione (10^−6 M).
Regenerated shoot calli from a cell transformed with a nucleic acid sequence encoding an HPPD comprising SEQ ID No. 11 (Arabidopsis thaliana) or SEQ ID No. 7 (Synechococcus sp.) were transferred to a media inducing root growth which media was further supplemented with the HPPD inhibitor tembotrione for 6 to 12 weeks.

[4] = tested on: rice shoots transformed with FMP38e; test: Bleaching of rice shoots on MS/2 with tembotrione; format: in vivo; settings: evaluation 2 weeks later
Method: Rice transformation was achieved using methods well known in the art. Briefly, the Agrobacterium tumefaciens mediated transformation of rice was performed using immature embryos, from the restorer line 6G4317. Briefly, panicles from donor plants were harvested 8-12 days after pollination. The lemma of the immature seed was removed. Seeds were thereafter sterilized using a NaOCl based solution and Tween. The seeds were preinduced with […]. Agrobacterium tumefaciens cells are then co-cultivated with the preinduced seeds in presence of acetosyringone for 4 days at 24° C. in the dark. Thereafter, coleoptile from embryos are removed and washed, then put on a media supplemented with phosphinothricin for 3 weeks at 28° C. under a photoperiod rhythm of 16 hours. Then the growing calli were cut off from the embryos, and transferred to fresh media containing triacillin, phosphinothricin, L-proline and copper (II) sulfate.
For each callusline and per Tembotrione concentration, 3 shoots, and randomly isolated from different callus pieces, were transferred to MS/2 with Tembotrione. As a general rule, transfer of the shoots from regeneration medium to MS/2 occurred 9 weeks after calli had been put on regeneration medium.
Cultures were incubated at 26.5° C. (16 hrs. photoperiod) and evaluation of symptoms occurred 2 weeks later.
New developing leaves of the shoots transferred have been scored on the basis of bleaching and categorized in 3 groups:
a) no bleaching b) intermediate bleaching c) complete bleaching
Within the category ‘intermediate bleaching’ a distinction has been made between shoots having new leaves showing only very little bleaching symptoms and thus tending to green leaves, and shoots with new leaves almost completely bleached.

[5] = tested on: Synechococcus sp. HPPD "SEQ ID No. 5"; test: HPPD activity in presence of HPPD inhibitors (pI50, % inhibition); format: biochemical
Text: In this content, pI50-value means the log value of the concentration of inhibitor necessary to inhibit 50% of the enzyme activity in molar concentration.

Compound: CS(=O)(=O)c1ccc(C(=O)C2C(=O)CCCC2=O)c(Cl)c1COCC(F)(F)F [Tembotrione, 2-[2-chloro-4-(methylsulfonyl)-3-[(2,2,2,-tri-fluoroethoxy)methyl]benzoyl]-1,3-cyclo-hexanedione]
- % injury ([1]; line 34, one value per plant): 30%
- % injury ([1]; line 39, one value per plant): 0% and 5%
- Class I (no injuries), number of plants [2]: 9
- Class II (injury: 10-40%), number of plants [2]: 8
- Class III (injury: 41-100%), number of plants [2]: 8
- % Elongation & rooting on 10^−6 M tembotrione [3]: 80%
- No of shoots completely bleached ([4]; 1 μM): 0
- No of shoots with intermediate bleaching ([4]; 1 μM): 4
- No of shoots without bleaching ([4]; 1 μM): 38
- No of shoots with intermediate bleaching ([4]; 5 μM): 35
- No of shoots without bleaching ([4]; 5 μM): 3
- pI50 ([5]; 2 mM HPP, 3 minutes incubation): 5.6
- percentage of inhibition ([5]; 5.0 × 10^−6 M inhibitor, compared to activity in absence of inhibitor): 79%
